Target: T1, human SARM1(50-724) (Homo sapiens, UniProt Q6SZW1)
T1 construct: 40 nM human SARM1(50-724)
T1 sequence (Q6SZW1 50-724): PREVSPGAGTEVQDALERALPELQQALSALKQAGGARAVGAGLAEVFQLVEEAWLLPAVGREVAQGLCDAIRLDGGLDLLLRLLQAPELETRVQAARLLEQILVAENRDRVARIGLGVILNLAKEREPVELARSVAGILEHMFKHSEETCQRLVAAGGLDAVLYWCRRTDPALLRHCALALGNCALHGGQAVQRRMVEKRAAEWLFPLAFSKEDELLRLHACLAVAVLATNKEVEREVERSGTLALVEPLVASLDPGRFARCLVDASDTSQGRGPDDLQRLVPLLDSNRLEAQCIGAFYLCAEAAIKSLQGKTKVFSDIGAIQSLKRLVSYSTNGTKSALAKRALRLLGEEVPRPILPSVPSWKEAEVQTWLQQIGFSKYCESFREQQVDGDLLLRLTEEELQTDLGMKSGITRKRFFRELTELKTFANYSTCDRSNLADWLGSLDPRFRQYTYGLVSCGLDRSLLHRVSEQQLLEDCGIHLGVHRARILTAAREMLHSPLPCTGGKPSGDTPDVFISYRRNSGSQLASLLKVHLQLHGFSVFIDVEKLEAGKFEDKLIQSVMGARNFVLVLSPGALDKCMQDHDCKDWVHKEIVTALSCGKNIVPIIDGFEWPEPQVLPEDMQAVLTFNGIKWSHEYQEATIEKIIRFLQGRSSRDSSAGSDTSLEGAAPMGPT
Experiment: SARM1 NADase biochemical assay (HPLC of NAD and NAM)
Details: 40 nM human SARM1(50-724), 0.3 mM NMN, 20 μM NAD, 60 minutes room temperature; dose-response from 100 μM, 1:3 dilution
Procedure: Each reaction was run at a volume of 20 μL containing 50 μM compound (dissolved in DMSO; final concentration of DMSO is 1% v/v), 40 nM human SARM1(50-724), 0.3 mM NMN, 20 μM NAD, 1 mM TCEP, 25 mM HEPES pH 7.4, 10 mM KCl and 10 mM MgCl2. The reaction was incubated at room temperature for 60 minutes and quenched with 20 μL of 0.4% formic acid. The samples were run on Agilent HPLC 1260 Infinity II with Synergi 2.5 μM Fusion-RP 100 Å (100×3.0 mm) LC column from Phenomenex. Total run time for each sample was 4 minutes. The run was isocratic with 1.5% methanol in 40 mM ammonium acetate pH 6.0. Samples were run at a flow rate of 0.8 mL/min at 55° C. Peak areas of NAD and NAM were determined using OpenLAB CDS (Chem Station edition) software. For dose-response, the compound was diluted serially 1:3 in DMSO and added to the reaction starting at a final compound concentration of 100 μM in 1% DMSO.

| Structure (SMILES) | IC50 [µM] |
| --- | --- |
| Cc1c(NC(=O)OCc2ccc(Cl)cc2)cnn1-c1ccncc1 [Example 136, 4-Chlorobenzyl (5-methyl-1-(pyridin-4-yl)-1H-pyrazol-4-yl)carbamate] | < 1 |
| Cc1c(-c2ccncc2)n[nH]c1NC(=O)C[S+]([O-])c1ccc(Cl)cc1 (stereo not drawn) [Example 120, 2-((4-chlorophenyl)sulfinyl)-N-(4-methyl-3-(pyridin-4-yl)-1H-pyrazol-5-yl)acetamide] | < 1 |
| Cc1c(NC(=O)NCc2ccc(Cl)cc2)cnn1-c1ccncc1 [Example 144, 1-(4-Chlorobenzyl)-3-(5-methyl-1-(pyridin-4-yl)-1H-pyrazol-4-yl)urea] | < 1 |
| O=C1N(Cc2ccc(Cl)cc2)CCN1c1cnn(-c2ccncc2)c1 [Example 158, 1-(4-Chlorobenzyl)-3-(1-(pyridin-4-yl)-1H-pyrazol-4-yl)imidazolidin-2-one] | 1 to 10 |
| Cc1c(-c2ccncc2)n[nH]c1N(C(=O)CCc1ccccc1)C(=O)CCc1ccc(Cl)cc1 [Example 6, 3-(4-Chlorophenyl)-N-(4-methyl-3-(pyridin-4-yl)-1H-pyrazol-5-yl)-N-(3-phenylpropanoyl)propanamide] | < 1 |
| Cc1c(-c2ccncc2)n[nH]c1N(C(=O)CCc1cc(F)c(Cl)c(F)c1)C(=O)CCc1cc(F)c(Cl)c(F)c1 [Example 9, 3-(4-Chloro-3,5-difluorophenyl)-N-(3-(4-chloro-3,5-difluorophenyl)propanoyl)-N-(4-methyl-3-(pyridin-4-yl)-1H-pyrazol-5-yl)propanamide] | < 1 |
| Cc1c(NC(=O)CCc2cc(F)c(F)c(F)c2)cnn1-c1ccncc1 [Example 84, N-(5-Methyl-1-(pyridin-4-yl)-1H-pyrazol-4-yl)-3-(3,4,5-trifluorophenyl)propanamide] | < 1 |
| Cc1c(-c2ccncc2)n[nH]c1NC(=O)CCc1ccc(Cl)s1 [Example 74] | < 1 |
| CCc1c(-c2ccncc2)n[nH]c1NC(=O)CCc1ccc(Cl)s1 [Example 17] | < 1 |
| O=C1CC(Cc2ccc(Cl)cc2)C(=O)N1c1cc(-c2ccncc2)n[nH]1 (racemic) [Example 156, (rac)-3-(4-Chlorobenzyl)-1-(3-(pyridin-4-yl)-1H-pyrazol-5-yl)pyrrolidine-2,5-dione] | < 1 |
| Cc1cnccc1-c1n[nH]c(NC(=O)CCc2ccc(C#N)c(F)c2)c1C [Example 112, 3-(4-Cyano-3-fluorophenyl)-N-(4-methyl-3-(3-methylpyridin-4-yl)-1H-pyrazol-5-yl)propanamide] | 1 to 10 |
| Cc1c(-c2ccncc2)n[nH]c1NC(=O)CCc1ncc(Cl)s1 [Example 76] | 1 to 10 |
| Cc1c(NC(=O)OCc2ccc(Cl)s2)cnn1-c1ccncc1 [Example 149, (5-Chlorothiophen-2-yl)methyl (5-methyl-1-(pyridin-4-yl)-1H-pyrazol-4-yl)carbamate] | 1 to 10 |
| Cc1c(-c2ccncc2)n[nH]c1NC(=O)C(F)Cc1cc(F)c(Cl)c(F)c1 (racemic) [Example 71, (rac)-3-(4-Chloro-3,5-difluorophenyl)-2-fluoro-N-(4-methyl-3-(pyridin-4-yl)-1H-pyrazol-5-yl)propanamide] | < 1 |
| O=C(NCc1cc(F)c(F)c(F)c1)Nc1cc(-c2ccncc2)n[nH]1 [Example 164, 1-(3-(Pyridin-4-yl)-1H-pyrazol-5-yl)-3-(3,4,5-trifluorobenzyl)urea] | < 1 |
| Cc1c(-c2ccncc2)n[nH]c1NC(=O)C1CC1c1ccc(Cl)cc1 (stereo not drawn) [Example 135, 2-(4-Chlorophenyl)-N-(4-methyl-3-(pyridin-4-yl)-1H-pyrazol-5-yl)cyclopropane-1-carboxamide] | 1 to 10 |

More lines, now with the values ahead:

| IC50 [µM] | Structure (SMILES) |
| --- | --- |
| 1 to 10 | COc1cnccc1-c1cc(NC(=O)CCc2ccc(Cl)cc2)[nH]n1 [Example 169, 3-(4-Chlorophenyl)-N-(3-(3-methoxypyridin-4-yl)-1H-pyrazol-5-yl)propanamide] |
| < 1 | CCc1c(-c2ccncc2)n[nH]c1NC(=O)CCc1ccc(Cl)cc1 [Example 14, 3-(4-Chlorophenyl)-N-(4-ethyl-3-(pyridin-4-yl)-1H-pyrazol-5-yl)propanamide] |
| < 1 | Cc1c(-c2ccncc2)n[nH]c1NC(=O)CNc1ccc(Cl)cc1 [Example 79, 2-((4-Chlorophenyl)amino)-N-(4-methyl-3-(pyridin-4-yl)-1H-pyrazol-5-yl)acetamide] |
| < 1 | Cc1c(-c2ccncc2)n[nH]c1NC(=O)CCc1ccc(OC(F)(F)F)cc1 [Example 54, N-(4-Methyl-3-(pyridin-4-yl)-1H-pyrazol-5-yl)-3-(4-(trifluoromethoxy)phenyl)propanamide] |
| < 1 | Cc1c(-c2ccncc2)n[nH]c1NC(=O)CCc1ccc(I)cc1 [Example 46, 3-(4-Iodophenyl)-N-(4-methyl-3-(pyridin-4-yl)-1H-pyrazol-5-yl)propanamide] |
| 1 to 10 | COc1ccc(CCC(=O)Nc2[nH]nc(-c3ccncc3)c2C)cc1 [Example 27, 3-(4-Methoxyphenyl)-N-(4-methyl-3-(pyridin-4-yl)-1H-pyrazol-5-yl)propanamide] |
| < 1 | Cc1c(-c2ccncc2)n[nH]c1N(C(=O)CCc1ccc(Cl)cc1)S(C)(=O)=O [Example 11, 3-(4-Chlorophenyl)-N-(4-methyl-3-(pyridin-4-yl)-1H-pyrazol-5-yl)-N-(methylsulfonyl)propanamide] |
| < 1 | Cc1c(-c2ccncc2)n[nH]c1NC(=O)OCc1ccc(Cl)cc1 [Example 130, 4-Chlorobenzyl (4-methyl-3-(pyridin-4-yl)-1H-pyrazol-5-yl)carbamate] |
| < 1 | Cc1c(-c2ccncc2)n[nH]c1NC(=O)CCc1ccc(C(F)F)cc1 [Example 57, 3-(4-(Difluoromethyl)phenyl)-N-(4-methyl-3-(pyridin-4-yl)-1H-pyrazol-5-yl)propanamide] |
| < 1 | Cc1c(-c2ccncc2)n[nH]c1NC(=O)CCc1ccc(F)cc1 [Example 33, 3-(4-Fluorophenyl)-N-(4-methyl-3-(pyridin-4-yl)-1H-pyrazol-5-yl)propanamide] |
| < 1 | N[C@@H](Cc1ccc(Cl)cc1)C(=O)Nc1cc(-c2ccncc2)n[nH]1 [Example 153, (S)-2-Amino-3-(4-chlorophenyl)-N-(3-(pyridin-4-yl)-1H-pyrazol-5-yl)propanamide] |
| 1 to 10 | O=C(CCc1ccc(F)cc1)Nc1cnn(-c2ccncc2)c1 [Example 115] |
| < 1 | Cc1cc(Cl)ccc1CCC(=O)Nc1[nH]nc(-c2ccncc2)c1C [Example 42, 3-(4-Chloro-2-methylphenyl)-N-(4-methyl-3-(pyridin-4-yl)-1H-pyrazol-5-yl)propanamide] |
| < 1 | Cc1cc(CCC(=O)Nc2[nH]nc(-c3ccncc3)c2C)ccc1Cl [Example 43, 3-(4-Chloro-3-methylphenyl)-N-(4-methyl-3-(pyridin-4-yl)-1H-pyrazol-5-yl)propanamide] |
| 1 to 10 | O=C(CCc1ccc(Cl)cc1)Nc1nc(-c2ccncc2)c[nH]1 [Example 108] |
| < 1 | O=C(CCc1ccc(Br)cc1)Nc1cnn(-c2ccncc2)c1 [Example 114, 3-(4-Bromophenyl)-N-(1-(pyridin-4-yl)-1H-pyrazol-4-yl)propanamide] |
| < 1 | Cc1ccc(CCC(=O)Nc2[nH]nc(-c3ccncc3)c2C)cc1 [Example 24, N-(4-Methyl-3-(pyridin-4-yl)-1H-pyrazol-5-yl)-3-(p-tolyl)propanamide] |

Source: patent publication US12404265B2, “Substituted pyridine derivatives as SARM1 inhibitors” (Nura Bio, Inc., priority 2020, dated 2025)
